This passage reports TGI and GI50 results from PubChem BioAssay (NCI).

Some test systems named below: NCI-H23 lung; T-47D breast; CAKI-1 renal; HCT-116 colon; NCI-H226 lung; BT-549 breast; MDA-MB-231 breast; PC-3 prostate; SR leukemia; SNB-75 CNS.
What all share (assay): inhibition of tumour cell growth, NCI panel, 48 h

Structures are written as SMILES.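 Each compound was tested at five concentrations against cells in 96-well plates for 48 hours. GI50 is the concentration that inhibits growth by half. The concentration for full growth arrest is given as TGI.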

In the case of `CC(C)c1cc(CN(C)C)c(O)c(C(C)(C)C)c1`, the TGI in the assay on NCI-H23 lung is above 100 µM; in the assay with T-47D breast, 58.1 µM; with CAKI-1 renal it was 53.8 µM; in the assay with HCT-116 colon it was above 100 µM; in the assay on NCI-H226 lung, 42.5 µM; in the assay on BT-549 breast, above 100 µM. Further, the TGI in the assay on MDA-MB-231 breast is above 100 µM; with PC-3 prostate it was 56.7 µM.

Regarding `CCOC(=O)C12CCC(=O)C=C1[C@@H](C)C(=O)CC2` (some centres not stated), the TGI with NCI-H23 lung, in the assay with HCT-116 colon, in the assay with NCI-H226 lung, in the assay on SR leukemia and with SNB-75 CNS was above 100 µM in each case.

As to `Nc1nc(N)c2c(n1)NC(=O)c1c(c3ccccc3n1Cc1ccc(Cl)cc1)C2`, the TGI with NCI-H23 lung is above 100 µM; with T-47D breast it was 43.9 µM; in the assay on CAKI-1 renal, 34.5 µM; in the assay on HCT-116 colon it was 66.9 µM; with NCI-H226 lung, above 100 µM; in the assay on BT-549 breast, 49.2 µM. Also, the TGI in the assay on SNB-75 CNS was 69.2 µM; in the assay with PC-3 prostate, above 100 µM.

Take `CC(C)(C)N1C(C(=O)c2ccccc2)C1c1ccccc1` (configuration not stated): the TGI with NCI-H23 lung, in the assay with NCI-H226 lung and in the assay on SNB-75 CNS was above 100 µM each time.

Take `C#CCOc1c(C(=O)OCC)c(=O)n(C)c2ccccc12`: the TGI in the assay with NCI-H23 lung, with CAKI-1 renal, in the assay on NCI-H226 lung and with SNB-75 CNS was above 100 µM in each case.

For `CC(=O)OC(C)C1C2=C(C(=O)CC1(C)O)C(=O)c1c(ccc(-c3ccc4c(c3O)C(=O)C3=C(C4=O)C(C(C)OC(C)=O)C(C)(O)CC3=O)c1O)C2=O` (configuration not stated), the TGI amounted to 3.07 µM in the assay with NCI-H23 lung; 4.61 µM in the assay with T-47D breast; 6.06 µM in the assay with CAKI-1 renal; 1.77 µM with HCT-116 colon; 27.8 µM with NCI-H226 lung; 2.83 µM with BT-549 breast. Also, the TGI worked out at 26.5 µM in the assay on SR leukemia, 4.98 µM in the assay on MDA-MB-231 breast, 5.92 µM in the assay with SNB-75 CNS and 8.74 µM in the assay with PC-3 prostate.

As for `NC(=O)C(N)=O`, the TGI in the assay with NCI-H23 lung, with HCT-116 colon and in the assay on SR leukemia was above 100 µM throughout.

On to `CC(C)=CCNc1ncnc2nc[nH]c12`, for which the TGI in the assay with NCI-H23 lung, with T-47D breast, in the assay on CAKI-1 renal, in the assay with HCT-116 colon, with NCI-H226 lung and in the assay on BT-549 breast was above 100 µM throughout. In addition, the TGI with SR leukemia, in the assay on MDA-MB-231 breast, in the assay on SNB-75 CNS and in the assay with PC-3 prostate was above 100 µM each time.

As for `COC(=O)Nc1nc2cc(OC)c(OC)cc2c(=O)[nH]1`, the TGI in the assay on NCI-H23 lung, in the assay on T-47D breast, in the assay with CAKI-1 renal, in the assay with HCT-116 colon, in the assay with NCI-H226 lung and in the assay on BT-549 breast was above 100 µM in each case. The TGI with SR leukemia is above 100 µM; in the assay on MDA-MB-231 breast it was above 100 µM; in the assay with SNB-75 CNS it was 43.6 µM; in the assay with PC-3 prostate, 71 µM.

For the compound `O=C(CSc1nc2ccccc2s1)c1sc2sc3ccccc3[n+]2c1[O-]`, the TGI in the assay with NCI-H23 lung, in the assay with T-47D breast, in the assay on CAKI-1 renal, with HCT-116 colon, with NCI-H226 lung and with BT-549 breast was above 100 µM in each case. The TGI in the assay on SR leukemia, in the assay on MDA-MB-231 breast and in the assay with PC-3 prostate was above 100 µM throughout.

Regarding `COc1ccc(C[C@H](N)C(=O)NC2C(CO)OC(n3cnc4c(N(C)C)ncnc43)C2O)cc1` (some centres not stated), the TGI came out at 0.432 µM in the assay with NCI-H23 lung; 0.293 µM in the assay with HCT-116 colon; 0.446 µM in the assay with NCI-H226 lung; 0.595 µM with SR leukemia; 0.744 µM in the assay with SNB-75 CNS.

Consider `O=C(CNc1cccc([N+](=O)[O-])c1)Nn1c(-c2ccccc2)nc2ccccc2c1=O`, for which the TGI is 9.32 µM in the assay with NCI-H23 lung; 4.54 µM in the assay with T-47D breast; 2.09 µM with HCT-116 colon; 0.512 µM with NCI-H226 lung; above 100 µM with BT-549 breast; 2.9 µM with MDA-MB-231 breast. Further, the TGI in the assay on PC-3 prostate was 1.85 µM.

In the case of `N#CCCCC[N+]12CN3CN(CN(C3)C1)C2`, the TGI in the assay with NCI-H23 lung, in the assay on T-47D breast, in the assay on CAKI-1 renal, in the assay with HCT-116 colon, in the assay with NCI-H226 lung and with BT-549 breast was above 100 µM each time. Moreover, the TGI with SR leukemia, in the assay with MDA-MB-231 breast, in the assay with SNB-75 CNS and in the assay with PC-3 prostate was above 100 µM each time.

For the compound `N#CN=C(N)NC(=O)/C=C/C=C/c1ccc(Cl)cc1`, the TGI in the assay with NCI-H23 lung is above 100 µM; in the assay on CAKI-1 renal it was above 100 µM; in the assay on HCT-116 colon, above 100 µM; in the assay with NCI-H226 lung it was above 100 µM; with SR leukemia it was above 100 µM; with SNB-75 CNS it was 54.8 µM.

With `N=C(c1ccc2ccccc2c1)c1ccccc1Cc1ccccc1`, the TGI in the assay with NCI-H23 lung was above 100 µM; with T-47D breast, 55.7 µM; with CAKI-1 renal it was above 100 µM; with HCT-116 colon, above 100 µM; with NCI-H226 lung, 98.9 µM; in the assay with BT-549 breast, above 100 µM. In addition, the TGI in the assay on SR leukemia, in the assay with MDA-MB-231 breast and with PC-3 prostate was above 100 µM throughout.

Regarding `O=c1ccc2nc(-c3ccccc3)nn(-c3ccccn3)c-2c1`, the GI50 in the assay on NCI-H23 lung is 13.6 µM; with T-47D breast it was 2.03 µM; in the assay with CAKI-1 renal it was 1.5 µM; in the assay on HCT-116 colon, 3.33 µM; in the assay with NCI-H226 lung, 20.4 µM; in the assay on BT-549 breast, 20.8 µM. The GI50 in the assay on SR leukemia was 2.97 µM; with MDA-MB-231 breast, 9.87 µM; with SNB-75 CNS, 13.2 µM; in the assay on PC-3 prostate it was 13.2 µM. Further, the TGI in the assay with NCI-H23 lung came to 45.1 µM; in the assay on T-47D breast it was 6.79 µM; with CAKI-1 renal, 2.84 µM; in the assay on HCT-116 colon, 11.3 µM; with NCI-H226 lung it was 57.5 µM; in the assay with BT-549 breast, 56.8 µM. In addition, the TGI with SR leukemia was 18.5 µM; in the assay on MDA-MB-231 breast, 29.5 µM; in the assay with SNB-75 CNS, 26 µM; in the assay on PC-3 prostate, 35.7 µM.
